{"source": "patent EP0919231A1", "about": "“Injectable parasiticide composition and process for the preparation” (Biogenesis, S.A., priority 1997, dated 1999)", "origin": "cited, not measured here", "key": {"[1]": {"conditions": "bovines; for detection of parent drug in plasma: after administering albendazole or phenbendazole, found in the gastrointestinal lumen; for detected in plasma, time postreatment: metabolite after administering albendazole or phenbendazole respectively"}, "[2]": {"test_system": "Haemonchus contortus", "conditions": "strain resistant to benzimidazoles; intravenous compared with oral administration"}, "[3]": {"test_system": "Trichostrongylus colubriformis", "conditions": "strain resistant to benzimidazoles; intravenous compared with oral administration"}}, "data": [{"compound": "CCCSc1ccc2nc(NC(=O)OC)[nH]c2c1", "note": "[albendazole]", "values": [{"measurement": "detection of parent drug in plasma", "setting": "[1]", "result": "not detected"}]}, {"compound": "COC(=O)Nc1nc2ccc([S+]([O-])c3ccccc3)cc2[nH]1", "note": "(stereo not drawn) [oxphendazole, methyl ester of [(5-phenyl-sulphinyl)-1H-benzimidazol-2-il] carbamic acid]", "values": [{"measurement": "effectiveness intravenous versus oral", "setting": "[2]", "result": "more effective"}, {"measurement": "effectiveness intravenous versus oral", "setting": "[3]", "result": "more effective"}, {"measurement": "detected in plasma, time postreatment", "setting": "[1]", "result": "≤ 36", "unit": "h"}]}, {"compound": "COC(=O)Nc1nc2ccc(Sc3ccccc3)cc2[nH]1", "note": "[phenbendazole]", "values": [{"measurement": "detection of parent drug in plasma", "setting": "[1]", "result": "not detected"}]}, {"compound": "CCC[S+]([O-])c1ccc2[nH]c(NC(=O)OC)nc2c1", "note": "(stereo not drawn) [ricobendazole, methyl ester of [(5-propyl-sulphinyl)-1H-benzimidazol-2-il] carbamic acid]", "values": [{"measurement": "detected in plasma, time postreatment", "setting": "[1]", "result": "≤ 36", "unit": "h"}]}]}
